Experiments:
[1] = TLC analysis of stability after purification; format: physicochemical; details: 24 hours after purification, in sodium ascorbate aqueous solution (final concentration 1%)
Method: The crude product solution (1 μL) was analyzed by thin-layer chromatography (TLC). The sample was spotted on a thin-layer plate (silica gel 60F254), and a mixed solvent of acetonitrile/water (2/1) was used as a developing solvent. The thin-layer plate was exposed to an imaging plate (BAS IP MS 2025E, GE Healthcare) for about 15 min, and then analyzed by a bioimage analyzer (Tyhoon™ FLA-7000, Cytiva). The results are shown in FIG. 2. ^211At-AAMT-OMe in the crude product solution was detected at Rf 0.80, and the radiochemical yield (RCY) was 81.3%.
(§1) The crude product solution was injected into an HLB column (Oasis, WAT-186005125) equilibrated with sterile distilled water (1 mL) to capture the target product in the cartridge, and sterile distilled water was passed through the cartridge to elute impurities. Next, 30% ethanol solution (500 μL) was passed through the cartridge to elute the target product into sodium ascorbate aqueous solution (500 μL, final concentration 1%), thus obtaining the purified product. The radiochemical yield and radiochemical purity of the purified product were 81% and 98%, respectively.
Before purification, immediately after production, 3 hours after production, and 24 hours after production, ^211At-AAMT-OMe was analyzed by thin-layer chromatography (TLC) in the same manner as described above.
as §1, with “product. This purified product was analyzed by thin-layer chromatography (TLC) in the same manner as described above.” for “product.”, “79.6%” for “81%”, “99.9%,” for “98%,”
24 hours after production, (R)-^211At-AAMT-OMe was analyzed by thin-layer chromatography (TLC) in the same manner as described above.
as §1, with “product. This purified product was analyzed by thin-layer chromatography (TLC) in the same manner as described above.” for “product.”, “75.9%” for “81%”, “99.27%,” for “98%,”
24 hours after production, ^211At-AAMT-OEt was analyzed by thin-layer chromatography (TLC) in the same manner as described above.
The crude product solution was injected into an HLB column (Oasis, WAT-186005125) equilibrated with sterile distilled water (1 mL) to capture the target product in the cartridge, and sterile distilled water was passed through the cartridge to elute impurities. […] This purified product was analyzed by thin-layer chromatography (TLC) in the same manner as described above. […]
24 hours after production, ^211At-AAMT-OPr was analyzed by thin-layer chromatography (TLC) in the same manner as described above. […]

[2] = system: human pancreatic cancer cell line (PANC1); test: Therapeutic test on PANC1 subcutaneously transplanted mice (28 days); format: in vivo, human (PANC1) in Balb/c-nu/nu mice; details: 1 MBq/0.2 mL per mouse, tail vein
From the text: Twenty-eight days after administration, the mice were euthanized and subjected to autopsy, and tumor masses were isolated after organs were examined for abnormalities.

HEK293-hLAT1 = HEK293-hLAT1 (Homo sapiens, UniProt Q01650); test: Cellular uptake test (Using HEK293); format: cell-based
Method: • Cells to be Used: HEK293-Mock, HEK293-hLAT1, HEK293-hLAT2 (HEK293: Human Embryonic Kidney cells 293) • Culture medium to be used: E-MEM (containing 10% FBS, 1% P/S, 1% NEAA)
Two days before a test day, a cell suspension was prepared in such a manner that the concentration of predetermined cells was 1×10^5 cells/mL. The cell suspension was seeded in a 24-well multiculture plate at a volume of 0.5 mL per well. On the day of the test, cultures were confirmed to be subconfluent (which refers to a state where 70-80% of the well is covered in density). The cells were washed twice with warmed PBS(-) Buffer (166-23555, FUJIFILM Wako Pure Chemical Corporation), the culture medium was replaced with HBSS(-) Buffer (085-09355, FUJIFILM Wako Pure Chemical Corporation), and the plate was left to stand in an incubator (MINIcell-35, WakenBtech Co., Ltd) until an RI addition test.
^211At-AAMT-OMe or ^211At-AAMT was added to the prepared cells at 10 μL/well. BCH (LAT1 inhibitor, 20 mM) or unlabeled AMT (α-methyl tyrosine, 1 μg/mL) was previously (15 minutes before) added ([…]). The cells were cultured (CO2 5%, 37 °C), and after 30 minutes, the liquid was removed by suction using an aspirator. The cells were washed twice with PBS(-). The cells were lysed by adding 0.1N NaOH to obtain a lysate, and the radioactivity of the lysate was measured using a γ counter. After the radioactivity measurement, the lysate was loaded into a 96-well plate at a volume of 10 μL per well, the protein amount was measured by the BCA method, and the number of cells was corrected based on the protein amount. Absorbance was measured by MultiScanFC (Thermo Fisher). The uptake level of ^211At-AAMT-OMe or ^211At-AAMT into the cells (number of radioactivity counts/protein amount) was calculated.

HEK293-hLAT1, sequence (Q01650 whole entry): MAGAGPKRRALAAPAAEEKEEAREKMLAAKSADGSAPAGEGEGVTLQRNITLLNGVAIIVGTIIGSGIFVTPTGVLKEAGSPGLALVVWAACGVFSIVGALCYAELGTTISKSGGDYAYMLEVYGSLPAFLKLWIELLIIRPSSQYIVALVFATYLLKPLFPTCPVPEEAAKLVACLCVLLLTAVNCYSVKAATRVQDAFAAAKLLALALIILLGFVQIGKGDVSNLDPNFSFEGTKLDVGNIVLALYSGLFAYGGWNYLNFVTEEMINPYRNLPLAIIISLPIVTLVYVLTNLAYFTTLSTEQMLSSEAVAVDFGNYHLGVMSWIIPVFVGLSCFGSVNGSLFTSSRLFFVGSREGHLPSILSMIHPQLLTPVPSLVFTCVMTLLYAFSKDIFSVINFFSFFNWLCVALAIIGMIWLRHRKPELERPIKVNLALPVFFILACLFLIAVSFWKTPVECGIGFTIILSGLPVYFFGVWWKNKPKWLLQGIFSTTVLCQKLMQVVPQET
HEK293-hLAT1, sequence (P08195 102-630 partner): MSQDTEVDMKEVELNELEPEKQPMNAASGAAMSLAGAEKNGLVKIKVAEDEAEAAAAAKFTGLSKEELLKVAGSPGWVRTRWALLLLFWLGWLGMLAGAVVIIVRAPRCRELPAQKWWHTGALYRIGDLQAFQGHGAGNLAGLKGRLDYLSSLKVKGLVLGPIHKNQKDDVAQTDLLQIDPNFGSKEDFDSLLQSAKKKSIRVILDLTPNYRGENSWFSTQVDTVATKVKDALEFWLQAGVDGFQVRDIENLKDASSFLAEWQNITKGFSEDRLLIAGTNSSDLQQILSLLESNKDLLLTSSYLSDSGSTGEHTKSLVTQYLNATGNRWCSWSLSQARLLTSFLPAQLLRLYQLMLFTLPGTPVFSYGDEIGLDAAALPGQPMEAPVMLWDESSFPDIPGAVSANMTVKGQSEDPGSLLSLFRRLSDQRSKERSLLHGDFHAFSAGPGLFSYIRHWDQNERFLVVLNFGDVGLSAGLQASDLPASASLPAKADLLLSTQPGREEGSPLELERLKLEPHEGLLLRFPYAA

COc1ccc(C[C@](C)(N)C(=O)O)cc1[At] [^211At-AAMT-OMe, (S)-3-astato(^211At)-O-methyl-α-methyltyrosine]
decomposition by TLC [1]: no decomposition
anti-tumor effect ([2]; 28 days after administration): slightly higher than that of ^211At-AAMT
tumor size ([2]; 28 days after administration): slightly smaller than that of the ^211At-AAMT administration group
mouse body weight ([2]; up to 28 days after administration): tends to slightly reduce, but the body weight reduction is significantly smaller than that of the control group, and is therefore not at a level regarded as a side effect
uptake level into cells (number of radioactivity counts/protein amount) (HEK293-hLAT1; HEK293-hLAT1 cells (CTL), 30 minutes, 37 °C): strongly taken up into HEK293-hLAT1 cells (CTL), comparable to ^211At-AAMT
specificity of uptake (HEK293-hLAT1; HEK293-hLAT1 cells, without and with BCH or AMT): specifically taken up into HEK293-hLAT1 cells

Source: patent publication US20260337125A1, “RADIOLABELED TYROSINE DERIVATIVE AND APPLICATION THEREOF” (Osaka University, priority 2022, published 2026)
